The source of these data is patent US9161900B2, “Cosmetic composition for inhibiting hair loss and enhanced hair growth” (AMOREPACIFIC CORPORATION, priority 2011, dated 2015).

For the assay, the system named is LNCaP cells having the androgen receptor. In words: Androgen receptor inhibition assay (LNCaP cell viability, WST-1). The conditions noted are these: Homo sapiens, 48 h, read-out: Cell viability (%). The protocol: The human prostate cancer cell line LNCaP cells were acquired from the American Type Culture Collection (Manassas, Va., USA) and cultured for 24 hours in RPMI 1640 medium containing 10% fetal bovine serum (FBS) and 2 mM 1-glutamine in an incubator maintained at 5% CO2 and 37° C.
Cell viability of the cultured cells was measured using the WST-1 reagent.
Background: Tetrazolium dyes change colour on reduction, which living cells bring about.

Structures are written as SMILES.

In general, viability refers to a read-out of living cells in per cent, often relative to untreated cells. Consider `C[C@]12CCC(=O)C[C@@H]1CC[C@@H]1[C@@H]2CC[C@]2(C)[C@@H](O)CC[C@@H]12` [DHT, dihydrotestosterone], for which the viability at 0.001 µM amounted to 119%.
